In patent US8124775B2, “Chemical compound and its use” (Bayer Pharma Aktiengesellschaft, priority 2004, dated 2012):
Read-outs that look alike come from different tables or passages of the source.

Experiments:
[1] = molecular target: T1, CETP (Homo sapiens, UniProt P11597); assay: CETP fluorescence test with enriched CETP; assay type: biochemical; design: tissue Sigma P9523; host or cells: human plasma; details: section (b), Example 1 = formula (Ib); enriched CETP from human plasma, 37° C., 4 hours
T1 sequence (P11597 18-493): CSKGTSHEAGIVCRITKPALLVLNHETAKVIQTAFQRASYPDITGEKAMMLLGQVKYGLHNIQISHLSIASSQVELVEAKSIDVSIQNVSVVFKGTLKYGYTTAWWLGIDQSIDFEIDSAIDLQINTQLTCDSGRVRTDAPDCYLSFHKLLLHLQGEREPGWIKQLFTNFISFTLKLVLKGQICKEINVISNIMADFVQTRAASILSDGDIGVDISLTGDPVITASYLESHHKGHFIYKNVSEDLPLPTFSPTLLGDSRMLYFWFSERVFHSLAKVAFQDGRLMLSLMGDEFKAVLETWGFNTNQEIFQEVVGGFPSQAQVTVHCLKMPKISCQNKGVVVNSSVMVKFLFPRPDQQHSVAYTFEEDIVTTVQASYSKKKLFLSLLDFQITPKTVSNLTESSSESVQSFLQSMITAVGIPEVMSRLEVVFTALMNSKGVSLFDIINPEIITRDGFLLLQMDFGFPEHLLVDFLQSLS
Description: CETP is obtained in partially purified form from human plasma by differential centrifugation and column chromatography and used for the test. To this end, human plasma is adjusted to a density of 1.21 g per ml using NaBr and centrifuged at 4° C. at 50 000 rpm for 18 h. The bottom fraction (d>1.21 g/ml) is applied to a Sephadex® Phenyl-Sepharose 4B (Pharmacia) column, washed with 0.15 M NaCl/0.001 M tris-HCl pH 7.4 and then eluted with distilled water. The CETP-active fractions are pooled, dialysed against 50 mM sodium acetate pH 4.5 and applied to a CM-Sepharose® column (Pharmacia). The mixture is then eluted using a linear gradient (0-1 M NaCl). The pooled CETP fractions are dialysed against 10 mM tris/HCl pH 7.4 and then further purified by chromatography on a Mono Q® column (Pharmacia).
Measurement of the CETP-catalysed transfer of a fluorescent cholesterol ester between liposomes [modified according to the procedure of Bisgaier et al., J. Lipid Res. 34, 1625 (1993)]: […]
The change in the fluorescence at 485/535 nm is a measure of the CE transfer; the inhibition of the transfer in comparison to the control batch without substance is determined. […]

[2] = molecular target: T1, CETP; assay: CETP fluorescence test with human plasma; assay type: biochemical; design: tissue Sigma P9523; host or cells: human plasma; details: section (b), Example 1 = formula (Ib), 37° C., 24 h
Description: For the production of the donor liposomes, 1 mg of cholesteryl 4,4-difluoro-5,7-dimethyl-4-bora-3a,4a-diaza-s-indacene-3-dodecanoate (cholesteryl BODIPY® FL C12, Molecular Probes) is dissolved in 600 μl of dioxane with 5.35 mg of triolein and 6.67 mg of phosphatidylcholine with gentle warming in an ultrasonic bath and this solution is added very slowly with ultrasonication to 63 ml of 50 mM tris/HCl, 150 mM NaCl, 2 mM EDTA buffer pH 7.3 at room temperature. The suspension is then ultrasonicated under an N2 atmosphere for 30 minutes in the Branson ultrasonic bath at about 50 watts, the temperature being kept at about 20° C.
6 μl (12% v/v) of donor liposomes and 1 μl (2% v/v) of a solution of the substance to be investigated in DMSO are added to 42 μl (86% v/v) of human plasma (Sigma P9523), and the mixture is incubated at 37° C. for 24 h.
The change in the fluorescence at 510/520 nm (gap width 2.5 nm) is a measure of the CE transfer; the inhibition of the transfer in comparison to the control batch without substance is determined. […]

[3] = molecular target: T1, CETP; assay: CETP-SPA test; assay type: biochemical; design: are added to 42 μl (86% v/v) of human plasma (Sigma P9523); tissue Sigma P9523; host or cells: human plasma; details: section (b), Example 1 = formula (Ib); 37° C., 18 h
Description: 50 ml of fresh human EDTA plasma is adjusted to a density of 1.12 using NaBr and centrifuged at 4° C. in a Ty 65 rotor at 50 000 rpm for 18 h. The upper phase is used for the obtainment of cold LDL. […]
For testing of the CETP activity, the transfer of ^3H-cholesterol ester from human HD lipoproteins to biotinylated LD lipoproteins is measured. The reaction is ended by addition of streptavidin-SPA® beads (Amersham) and the transferred radioactivity is determined directly in a liquid scintillation counter. […]

[4] = molecular target: T1, CETP; assay: Ex vivo activity on transgenic hCETP mice (serum CETP activity); assay type: in vivo; design: from tissue; host or cells: serum of transgenic hCETP mice (Dinchuk et al.); details: mouse, po
Description: 10 μl of buffer and 2 μl of serum are added to 80 μl of test mix, and the mixture is incubated at 37° C. for 4 h.
The change in the fluorescence at 485/535 nm is a measure for the CE transfer; the inhibition of the transfer is comparison to the control batch without substance is determined.
To test for CETP-inhibitory activity, the substances are administered orally using a stomach tube to transgenic hCETP mice bred in-house [Dinchuk et al. BBA 1295-301 (1995)]. To this end, male animals are randomly assigned to groups having an equal number of animals, as a rule n=4, one day before the start of the experiment. Before administration of the substance, blood is taken from each mouse by puncture of the retro-orbital venous plexus for the determination of its basal CETP activity in the serum (T1). The test substance is then administered to the animals using the stomach tube. At specific times after administration of the test substance, blood is taken from the animals by puncture a second time (T2), in general 16 or 24 h after substance administration, but if appropriate this can also be carried out at another time.
In order to be able to assess the inhibitory activity of a substance, for each time, i.e. 16 or 24 hours, a corresponding control group is employed whose animals only receive the formulating agent without substance. In the control animals, the second blood sampling per animal is carried out as in the substance-treated animals in order to be able to determine the change in the CETP activity without inhibitor over the corresponding experimental time interval (16 or 24 h).
After termination of the clotting, the blood samples are centrifuged and the serum is removed by pipette. For the determination of the CETP activity, the cholesteryl ester transport over 4 h is determined. To this end, in general 2 μl of serum are employed in the test batch and the test is carried out as described under B-I.2.3.
The differences in the cholesteryl ester transport [pM CE/h (T2)−pM CE/h (T1)] are calculated for each animal and averaged in the groups. A substance which at one of the times reduces the cholesteryl ester transport by >20% is regarded as active.
The change in the fluorescence at 485/535 nm is a measure for the CE transfer; the inhibition of the transfer in comparison to the control batch without substance is determined.
To test for CETP-inhibitory activity, the substances are administered orally using a stomach tube to transgenic hCETP mice bred in-house [Dinchuk et al., BBA, 1295-1301 (1995)]. To this end, male animals are randomly assigned to groups having an equal number of animals, as a rule n=4, one day before the start of the experiment. […]

Row | Compound | IC50 [1] | IC50 [2] | IC50 [3] | inhibition at 3 mg/kg ([4]; section (a), Example 1 = formula (Ia), 16 h after administration, read-out: % inhibition at 3 mg/kg, 16 h) | inhibition at 3 mg/kg ([4]; section (a), Example 1 = formula (Ia), 24 h after administration, read-out: % inhibition at 3 mg/kg, 24 h) | inhibition at 3 mg/kg ([4]; section (b), Example 1 = formula (Ib), 16 h after administration, read-out: % inhibition at 3 mg/kg, 16 h) | inhibition at 3 mg/kg ([4]; section (b), Example 1 = formula (Ib), 24 h after administration, read-out: % inhibition at 3 mg/kg, 24 h)
1 | CC(C)c1nc2c(c(C3CCCC3)c1[C@@H](F)c1ccc(C(F)(F)F)cc1)[C@@H](O)CC(C)(C)C2 [Example 1] | 25 nM | 84 nM | – | – | – | – | –
2 | CC1(C)Cc2nc(C3CCCC3)c([C@@H](F)c3ccc(C(F)(F)F)cc3)c(C3CCCCC3)c2[C@@H](O)C1 [Example 1] | – | – | 12 nM | 50% | 24% | 49% | 39%
